Measured values reported in ChEMBL document CHEMBL1159259, “A bioactive tetraprenylphenol from Lactarius lignyotus” (1995).

What was measured:
Format in all cases: functional
Parameters in all cases: scale not given: the % may be the effect or the level left
[1] = tested on: HeLa S3; test: Inhibition of DNA synthesis in human HeLaS3 cells assessed as [3H]thymidine incorporation at 10.4 ug/ml after 45 mins by liquid scintillation counting
[2] = tested on: HeLa S3; test: Inhibition of DNA synthesis in human HeLaS3 cells assessed as [3H]thymidine incorporation at 25 ug/ml after 45 mins by liquid scintillation counting
[3] = tested on: HeLa S3; test: Inhibition of DNA synthesis in human HeLaS3 cells assessed as [3H]thymidine incorporation at 50 ug/ml after 45 mins by liquid scintillation counting
[4] = tested on: HeLa S3; test: Inhibition of DNA synthesis in human HeLaS3 cells assessed as [3H]thymidine incorporation at 75 ug/ml after 45 mins by liquid scintillation counting
[5] = tested on: HeLa S3; test: Inhibition of protein synthesis in human HeLaS3 cells assessed as [3H]leucine incorporation at 10.4 ug/ml after 45 mins by liquid scintillation counting
[6] = tested on: HeLa S3; test: Inhibition of protein synthesis in human HeLaS3 cells assessed as [3H]leucine incorporation at 25 ug/ml after 45 mins by liquid scintillation counting
[7] = tested on: HeLa S3; test: Inhibition of protein synthesis in human HeLaS3 cells assessed as [3H]leucine incorporation at 50 ug/ml after 45 mins by liquid scintillation counting
[8] = tested on: HeLa S3; test: Inhibition of protein synthesis in human HeLaS3 cells assessed as [3H]leucine incorporation at 75 ug/ml after 45 mins by liquid scintillation counting
[9] = tested on: HeLa S3; test: Inhibition of RNA synthesis in human HeLaS3 cells assessed as [3H]uridine incorporation at 10.4 ug/ml after 45 mins by liquid scintillation counting
[10] = tested on: HeLa S3; test: Inhibition of RNA synthesis in human HeLaS3 cells assessed as [3H]uridine incorporation at 25 ug/ml after 45 mins by liquid scintillation counting
[11] = tested on: HeLa S3; test: Inhibition of RNA synthesis in human HeLaS3 cells assessed as [3H]uridine incorporation at 50 ug/ml after 45 mins by liquid scintillation counting
[12] = tested on: HeLa S3; test: Inhibition of RNA synthesis in human HeLaS3 cells assessed as [3H]uridine incorporation at 75 ug/ml after 45 mins by liquid scintillation counting
[13] = tested on: HL-60; test: Inhibition of DNA synthesis in human HL60 cells assessed as [3H]thymidine incorporation at 10.4 ug/ml after 45 mins by liquid scintillation counting
[14] = tested on: HL-60; test: Inhibition of DNA synthesis in human HL60 cells assessed as [3H]thymidine incorporation at 25 ug/ml after 45 mins by liquid scintillation counting
[15] = tested on: HL-60; test: Inhibition of DNA synthesis in human HL60 cells assessed as [3H]thymidine incorporation at 50 ug/ml after 45 mins by liquid scintillation counting
[16] = tested on: HL-60; test: Inhibition of DNA synthesis in human HL60 cells assessed as [3H]thymidine incorporation at 75 ug/ml after 45 mins by liquid scintillation counting
[17] = tested on: HL-60; test: Inhibition of protein synthesis in human HL60 cells assessed as [3H]leucine incorporation at 10.4 ug/ml after 45 mins by liquid scintillation counting
[18] = tested on: HL-60; test: Inhibition of protein synthesis in human HL60 cells assessed as [3H]leucine incorporation at 25 ug/ml after 45 mins by liquid scintillation counting
[19] = tested on: HL-60; test: Inhibition of protein synthesis in human HL60 cells assessed as [3H]leucine incorporation at 50 ug/ml after 45 mins by liquid scintillation counting
[20] = tested on: HL-60; test: Inhibition of protein synthesis in human HL60 cells assessed as [3H]leucine incorporation at 75 ug/ml after 45 mins by liquid scintillation counting
[21] = tested on: HL-60; test: Inhibition of RNA synthesis in human HL60 cells assessed as [3H]uridine incorporation at 10.4 ug/ml after 45 mins by liquid scintillation counting
[22] = tested on: HL-60; test: Inhibition of RNA synthesis in human HL60 cells assessed as [3H]uridine incorporation at 25 ug/ml after 45 mins by liquid scintillation counting
[23] = tested on: HL-60; test: Inhibition of RNA synthesis in human HL60 cells assessed as [3H]uridine incorporation at 50 ug/ml after 45 mins by liquid scintillation counting
[24] = tested on: HL-60; test: Inhibition of RNA synthesis in human HL60 cells assessed as [3H]uridine incorporation at 75 ug/ml after 45 mins by liquid scintillation counting

Question: With `CC(C)=CCC/C(C)=C/CC/C(C)=C/CC/C(C)=C/Cc1cc(O)ccc1O` [GERANYLGERANYLHYDROQUINONE] as the compound, how does the Activity [1] read?
Answer: Its Activity is 100%.

Question: What about the Activity [2] of the same compound?
Answer: Its Activity is 74%.

Question: And the Activity [3]?
Answer: Its Activity is 83%.

Question: And the Activity [4]?
Answer: Its Activity is 49%.

Question: And the Activity [5]?
Answer: Its Activity is 100%.

Question: And the Activity [6]?
Answer: Its Activity is 92%.

Question: What about the Activity [7] of the same compound?
Answer: The Activity was 67%.

Question: And the Activity [8]?
Answer: The Activity was 61%.

Question: What about the Activity [9] of the same compound?
Answer: The Activity was 96%.

Question: What about the Activity [10] of the same compound?
Answer: The Activity was 83%.

Question: And the Activity [11]?
Answer: The Activity was 91%.

Question: What about the Activity [12] of the same compound?
Answer: Its Activity is 86%.

Question: What about the Activity [13] of the same compound?
Answer: Its Activity is 55%.

Question: What about the Activity [14] of the same compound?
Answer: The Activity was 38%.

Question: And the Activity [15]?
Answer: Its Activity is 20%.

Question: And the Activity [16]?
Answer: The Activity was 17%.

Question: What about the Activity [17] of the same compound?
Answer: The Activity was 85%.

Question: And the Activity [18]?
Answer: Its Activity is 52%.

Question: And the Activity [19]?
Answer: The Activity was 52%.

Question: And the Activity [20]?
Answer: Its Activity is 32%.

Question: And the Activity [21]?
Answer: The Activity was 95%.

Question: And the Activity [22]?
Answer: Its Activity is 32%.

Question: And the Activity [23]?
Answer: Its Activity is 36%.

Question: And the Activity [24]?
Answer: The Activity was 42%.

Question: For `COc1ccc(O)c(CC=C(C)C)c1`, which Activity [1] is on record?
Answer: Its Activity is 100%.

Question: What about the Activity [2] of the same compound?
Answer: Its Activity is 59%.

Question: And the Activity [3]?
Answer: The Activity was 70%.

Question: And the Activity [4]?
Answer: The Activity was 31%.

Question: What about the Activity [5] of the same compound?
Answer: The Activity was 96%.

Question: And the Activity [6]?
Answer: The Activity was 43%.

Question: What about the Activity [7] of the same compound?
Answer: The Activity was 38%.

Question: And the Activity [8]?
Answer: Its Activity is 37%.

Question: What about the Activity [9] of the same compound?
Answer: The Activity was 97%.

Question: What about the Activity [10] of the same compound?
Answer: The Activity was 86%.

Question: What about the Activity [11] of the same compound?
Answer: Its Activity is 91%.

Question: What about the Activity [12] of the same compound?
Answer: The Activity was 90%.

Question: And the Activity [13]?
Answer: The Activity was 64%.

Question: And the Activity [14]?
Answer: The Activity was 32%.

Question: And the Activity [15]?
Answer: The Activity was 14%.

Question: What about the Activity [16] of the same compound?
Answer: The Activity was 1.5%.

Question: What about the Activity [17] of the same compound?
Answer: The Activity was 49%.

Question: What about the Activity [18] of the same compound?
Answer: Its Activity is 38%.

Question: What about the Activity [19] of the same compound?
Answer: Its Activity is 35%.

Question: What about the Activity [20] of the same compound?
Answer: Its Activity is 32%.

Question: And the Activity [21]?
Answer: The Activity was 98%.

Question: And the Activity [22]?
Answer: Its Activity is 50%.

Question: And the Activity [23]?
Answer: The Activity was 55%.

Question: And the Activity [24]?
Answer: Its Activity is 38%.
